{"source": "patent US9993452B2", "about": "“Compositions and methods for treatment of inflammation” (Vireo Systems, Inc., priority 2014, dated 2018)", "key": {"TNF-α mRNA [1]": {"system": "TNF-α mRNA", "assay": "TNF-α mRNA expression in mouse macrophage cell line RAW 264.7 (real-time RT-PCR)", "format": "cell-based", "procedure": "(§1) The mouse macrophage cell line, RAW 264.7 (American Tissue Type Culture Collection (ATCC); Manassas, Va.), was cultured in Dulbucco's modified Eagle's medium (DMEM; ATCC) supplemented with 10% heat inactivated fetal calf serum […] (Invitrogen; Carlsbad, Calif.), 100 μg/ml streptomycin and 100 U/ml penicillin (Invitrogen), and 2 mM L-glutamine (Invitrogen). The human T cell line, Jurkat clone E6-1 (ATCC) was cultured in RPMI-1640 medium (Invitrogen) supplemented as described above. The human monocyte cell line, THP-1 (ATCC) was cultured much like the Jurkat cultures plus the addition of 1 mM sodium pyruvate (Gibco-Invitrogen). THP-1 cells were stimulated with 200 nM of phorbol 12-myristate 13-acetate (PMA; Sigma-Aldrich, St. Louis, Mo.) for 48 hours to differentiate the cells into macrophage-like cells. Cells were then washed three times every 24 hours with fresh medium.\n(§2) Dose response experiments were performed following exposure of the RAW 264.7, Jurkat, and THP-1 cells to varying doses of creatinine HCl ([…]; Sigma-Aldrich). Control cultures contained no creatinine HCl, only growth medium. A dose of 10 mM creatinine HCl was chosen for use in these studies. The 10 mM concentration is physiologically relevant to individuals supplementing with 5 grams of creatine for their regimen and then converted into creatinine.\n(§3) RAW, Jurkat, and THP-1 cells were treated in 6-well plates at 80-90% confluent (4.14×10^6 cells/ml, 2.6×10^7 cells/ml, and 5.26×10^5 cells/ml, respectively). All cells were lysed in 1 ml of Trizol (Invitrogen). After homogenization, chloroform was added to samples and nucleic acids extracted per the manufacturer's instructions. Nucleic acids were precipitated with isopropyl alcohol (Fisher, Pittsburgh, Pa.). Following centrifugation, the resulting pellets were washed with 75% ethanol and air dried. RNA was re-suspended in 50 μl of UltraPure distilled water (Invitrogen). Residual DNA was removed from the samples by treatment with RQ1 DNase (Promega, Madison, Wis.) at 37° C. for 1 hour per the manufacturer's protocol. Samples were extracted with phenol:chloroform:[…] alcohol (25:24:1) (Invitrogen) and the RNA was precipitated with 1/10 volume of 3M sodium acetate (pH=5.2) and 3 volumes of 100% ethanol. Samples were frozen at […] for a minimum of 2 hours. After centrifugation, the samples were washed with 75% ethanol, air dried, and resuspended in 20 μl of UltraPure distilled water (Invitrogen) and stored at −80° C. until time of use, RNA was quantified using a NanoDrop-1000 Spectrophotometer with the program ND-1000 V3.8.1 (Thermo Fisher Scientific, Wilmington, Del.).\n(§4) Reverse transcription (Improm-II Reverse Transcription System, Promega) followed by real-time PCR analysis was performed in 20 μL volumes containing 1 μl of cDNA corresponding to 40 ng of DNase-treated RNA in the RT reaction, gene specific internal primers (0.5 μM of each primer), and 1× SsoFast EvaGreen Supermix (Bio-Rad, Hercules, Calif.). The primers were synthesized by Integrated DNA Technologies (IDT, Coralville, Iowa) and have 100% sequence homology to the […] or human genome. The primer sequences are listed below in Table 1.\n(§5) The PCR was performed using the following conditions: 95° C. for 30 sec, 40 cycles of 95° C. for 5 sec, and 57° C. for 5 sec using a CFX96 Real-Time Detection System (Bio-Rad), GAPDH was used as a housekeeping gene to normalize mRNA levels between samples. Data was analyzed using the Bio-Rad CFX Manager V1.6.541.1028 software (Bio-Rad). The calibrator in the experiments was the sample obtained from control-treated cells. Copy numbers of targeted mRNAs were expressed as ratios of GAPDH mRNA levels. Relative quantitation was determined by the comparative CT method (ΔΔCT method) in which the formula is expressed as: 2^−ΔΔCT(1).\n(§6) RT-PCR data was analyzed by two-way analysis of variance (ANOVA) with a Bonferroni's post-test. P values≤0.05 were considered statistically significant. […]"}, "TNF-α mRNA [2]": {"system": "TNF-α mRNA", "assay": "TNF-α mRNA expression in human T cell line Jurkat clone E6-1 (real-time RT-PCR)", "format": "cell-based", "procedure": "as §1, §2, §3, §4, §5, §6"}, "TNF-α mRNA [3]": {"system": "TNF-α mRNA", "assay": "TNF-α mRNA expression in human macrophage cell line THP-1 (real-time RT-PCR)", "format": "cell-based", "procedure": "as §1, §2\nRAW, Jurkat, and THP-1 cells were treated in 6-well plates at 80-90% confluent (4.14×10^6 cells/ml, 2.6×10^7 cells/ml, and 5.26×10^5 cells/ml, respectively). All cells were lysed in 1 ml of Trizol (Invitrogen). After homogenization, chloroform was added to samples and nucleic acids extracted per the manufacturer's instructions. Nucleic acids were precipitated with isopropyl alcohol (Fisher, Pittsburgh, Pa.). Following centrifugation, the resulting pellets were washed with 75% ethanol and air dried. […] After centrifugation, the samples were washed with 75% ethanol, air dried, and resuspended in 20 μl of UltraPure distilled water (Invitrogen) and stored at −80° C. until time of use, RNA was quantified using a NanoDrop-1000 Spectrophotometer with the program ND-1000 V3.8.1 (Thermo Fisher Scientific, Wilmington, Del.). […]\nas §5, with “The calibrator in the experiments was the sample obtained from control-treated cells.” left out\nRT-PCR data was analyzed by two-way analysis of variance (ANOVA) with a Bonferroni's post-test. […]"}, "[4]": {"conditions": "rats, acute or chronic inflammation induced by inflammatory agents, different doses; cited from earlier work"}, "mouse macrophages": {"system": "mouse macrophages", "conditions": "cited from earlier work"}, "[5]": {"system": "drug resistant Staphylococcus aureus (“MRSA”)", "conditions": "addition to a growth medium; cited from earlier work"}, "TLR-7": {"system": "TLR-7", "conditions": "mouse macrophages; cited from earlier work"}, "TLR-2": {"system": "TLR-2", "conditions": "mouse macrophages; cited from earlier work"}, "[6]": {"system": "vancomycin resistant Enterococcus faecium (“VRE”)", "conditions": "addition to a growth medium; cited from earlier work"}, "TNF-α protein": {"system": "TNF-α protein", "assay": "Immunohistochemical staining of TNF-α protein expression in mouse macrophage cells (RAW 264.7)", "format": "cell-based", "conditions": "10 mM", "procedure": "as §1\nRAW cells were incubated with or without 10 mM creatinine (Sigma-Aldrich) for 24 or 48 hours. Staining was performed on cytospins which were fixed in cold acetone, air-dried, and rehydrated in phosphate buffered saline (PBS). Blocking was performed at room temperature for 20 minutes, followed by incubation with purified rat anti-mouse TNF-α antibody (BD Biosciences, San Diego, Calif.) overnight. […]"}, "fungi": {"system": "fungi", "conditions": "cited from earlier work"}, "TLR-4": {"system": "TLR-4", "conditions": "mouse macrophages; cited from earlier work"}, "[7]": {"system": "Gram negative and Gram positive bacteria", "conditions": "addition to a growth medium; cited from earlier work"}, "TLR-3": {"system": "TLR-3", "conditions": "mouse macrophages; cited from earlier work"}}}
{"compound": "lipopolysaccharide [reference compound]", "values": [{"measurement": "TNF-α mRNA expression", "setting": "TNF-α mRNA [1]; positive control, RAW 264.7, not shown in graphs", "result": "significant increase"}, {"measurement": "TNF-α mRNA expression", "setting": "TNF-α mRNA [2]; positive control, Jurkat, not shown in graphs", "result": "significant increase"}, {"measurement": "TNF-α mRNA expression", "setting": "TNF-α mRNA [3]; positive control, THP-1, not shown in graphs", "result": "significant increase"}]}
{"compound": "CN1CC(=O)N=C1N", "note": "[creatinine]", "values": [{"measurement": "Edema", "setting": "[4]", "result": "decreased"}]}
{"compound": "CN1CC(=O)N=C1N.Cl", "note": "[creatinine HCl, creatinine hydrochloride]", "values": [{"measurement": "cell death", "setting": "mouse macrophages", "result": "No alterations"}, {"measurement": "bacteria in growth medium", "setting": "[5]", "result": "decreased"}, {"measurement": "TLR-7 transcript levels", "setting": "TLR-7", "result": "reduced"}, {"measurement": "TNF-α mRNA as compared to the control (100%)", "setting": "TNF-α mRNA [1]; 10 mM, 10 minutes post-exposure, RAW 264.7", "result": 28, "unit": "%"}, {"measurement": "TNF-α mRNA as compared to the control (100%)", "setting": "TNF-α mRNA [1]; 10 mM, 20 minutes post-exposure, RAW 264.7", "result": 13, "unit": "%"}, {"measurement": "TNF-α mRNA levels", "setting": "TNF-α mRNA [1]; 10 mM, 40 minutes post-exposure, RAW 264.7", "result": "began to increase"}, {"measurement": "TNF-α mRNA as compared to the control (100%)", "setting": "TNF-α mRNA [1]; 10 mM, 60 minutes post-exposure, RAW 264.7", "result": 47, "unit": "%"}, {"measurement": "decrease of TNF-α mRNA expression in mouse macrophages", "setting": "TNF-α mRNA [1]; about 10 mM, about 10 minutes post-treatment", "result": "≥ 72", "unit": "%"}, {"measurement": "reduction of TNF-α mRNA expression in mouse macrophages", "setting": "TNF-α mRNA [1]; about 10 mM, about 20 minutes post-treatment", "result": "≤ 87", "unit": "%"}, {"measurement": "TLR-2 transcript levels", "setting": "TLR-2", "result": "reduced"}, {"measurement": "bacteria in growth medium", "setting": "[6]", "result": "decreased"}, {"measurement": "TNF-α mRNA levels, of the control level", "setting": "TNF-α mRNA [2]; 10 mM, 20 minutes post-exposure, Jurkat", "result": 25, "unit": "%"}, {"measurement": "TNF-α mRNA levels", "setting": "TNF-α mRNA [2]; 10 mM, 30 minutes post-exposure, Jurkat", "result": "began increasing"}, {"measurement": "TNF-α mRNA levels", "setting": "TNF-α mRNA [2]; 10 mM, 60 minutes post-exposure, Jurkat", "result": "control levels"}, {"measurement": "TNF-α mRNA levels compared to the levels of control", "setting": "TNF-α mRNA [2]; 10 mM, within 10 minutes of exposure, Jurkat", "result": 50, "unit": "%"}, {"measurement": "reduction of mRNA levels in human T cells", "setting": "TNF-α mRNA [2]; about 10 mM, 20 minutes post-treatment", "result": "≤ 75", "unit": "%"}, {"measurement": "TNF-α protein signal (immunohistochemical staining) compared to control-treated cells", "setting": "TNF-α protein; 24 hours incubation", "result": "lower signals"}, {"measurement": "TNF-α protein signal (immunohistochemical staining) compared to control-treated cells", "setting": "TNF-α protein; 48 hours incubation", "result": "lower signals"}, {"measurement": "TNF-α mRNA levels, of the control levels", "setting": "TNF-α mRNA [3]; 10 mM, 10 minutes post-exposure, THP-1", "result": 41, "unit": "%"}, {"measurement": "TNF-α mRNA levels", "setting": "TNF-α mRNA [3]; 10 mM, 20 minutes post-exposure, THP-1", "result": "remained below those of control-treated cells"}, {"measurement": "TNF-α mRNA levels, of the control levels", "setting": "TNF-α mRNA [3]; 10 mM, 60 minutes post-exposure, THP-1", "result": 50, "unit": "%"}, {"measurement": "growth of fungi", "setting": "fungi", "result": "does not affect"}, {"measurement": "TLR-4 transcript levels", "setting": "TLR-4", "result": "reduced"}, {"measurement": "bacteria in growth medium", "setting": "[7]", "result": "decreased"}, {"measurement": "TLR-3 transcript levels", "setting": "TLR-3", "result": "reduced"}]}
